Experiments:
[1] = tested on: PQ-treated Neuro-2a cells; assay: PQ-treated Neuro-2a cell viability (MTT assay); assay type: cell-based, mouse; settings: compound 1 and 10 µM, PQ 500 µM, 24 h
Method: The cells (1 × 10^4 cells/well of a 96-well plate) were incubated with different concentrations of studied compounds during 24 h. After that, cell viability was determined by the MTT (3-(4,5-dimethylthiazol-2-yl)-2,5-diphenyltetrazolium bromide) method according to the manufacturer’s instructions (Sigma-Aldrich, St. Louis, MO, USA). Absorbance of the converted formazan was measured using a Multiskan FC microplate photometer (Thermo Scientific, Waltham, MA, USA) at λ = 570 nm. The results were presented as percent of control data, and concentration of cell viability inhibition on 50% (IC50) was calculated.
(§1) The cells (1 × 10^4 cells/well of a 96-well plate) were treated with studied compounds at concentrations of 1 and 10 µM for 1 h and then 500 µM of PQ (Sigma-Aldrich, St. Louis, MO, USA) was added to the neuroblastoma cells. Cells incubated without PQ and compounds and with PQ alone were used as positive and negative controls, respectively. The viability of cells was measured after 24 h using MTT and FDA methods. The results were presented as percent of positive control data.

[2] = tested on: PQ-treated Neuro-2a cells; assay: PQ-treated Neuro-2a cell viability (FDA assay); assay type: cell-based, mouse; settings: compound 1 and 10 µM, PQ 500 µM, 24 h
Method: A stock solution of the fluorescein diacetate (FDA) (Sigma-Aldrich, St. Louis, MO, USA) in DMSO (1 mg/mL) was prepared. The cells (1 × 10^4 cells/well) were seeded in black 96-well plates before testing. After incubation of the cells with compounds and PQ during 24 h, FDA solution (50 μg/mL) was added to each well and the plate was incubated in the dark at 37 °C for 15 min. Cells were washed with phosphate buffer saline (PBS) (BioloT, S.-Peterburg, Russia) and fluorescence was measured with a Fluoroskan Ascent plate reader (Thermo Labsystems, Helsinki, Finland) at λex = 485 nm and λem = 518 nm. All manipulations with fluorescent probes were carried out in a darkened room. Cell viability was expressed as the percent of control.
as §1

[3] = tested on: Hsp70 level in Neuro-2a cells; assay: Hsp70 level analysis by Western blot in Neuro-2a cells; assay type: cell-based, mouse; settings: compound 10 µM 1 h, then PQ 500 µM 24 h
Method: The Hsp70 expression was detected by Western blot analysis. Cell suspensions (1.6 × 10^5 cells/well of a 6-well plate) were seeded and treated with studied compounds at a concentration of 10 µM for 1 h. After that, PQ (500 µM) was added and cells were incubated during 24 h. Cells incubated without PQ and compounds and with PQ alone were used as positive and negative controls, respectively. Cells were washed by cold PBS (BioloT, Russia) twice and lysed by radioimmunoprecipitation assay (RIPA) buffer (BioloT, St. Peterburg, Russia). The amount of proteins was measured by the Bradford method and equal samples (25 µg) were prepared using sample buffer. Proteins were separated with sodium dodecyl sulphate (SDS) electrophoresis in 10% polyacrylamide gel. The electrophoretically separated proteins were transferred onto the polyvinylidene difluoride (PVDF) membrane Whatman (Sigma-Aldrich, St. Louis, MO, USA) using a semi-dry transfer apparatus (Helicon, Moscow, Russia). […] The peroxidase reaction was visualized by an enhanced chemiluminescence (ECL) kit according to the instructions of the manufacturer (Sigma-Aldrich, St. Louis, MO, USA) using the VersaDoc Imaging System (Bio-Rad, Hercules, CA, USA).

[4] = tested on: PQ-treated Neuro-2a cells; assay: Neurite outgrowth estimation in PQ-treated Neuro-2a cells; assay type: cell-based, mouse; settings: compound 10 µM 1 h, then PQ 500 µM 24 h
Method: Neurite outgrowth was studied as described by Li et al.. Neuro-2a cells were seeded in 6-well plates (1.6 × 10^5 cells/well) in DMEM medium containing 10% fetal bovine serum (Biolot, St. Peterburg, Russia) and 1% penicillin/streptomycin (Invitrogen, Carlsbad, CA, USA). The next day, this growth media was changed with serum-free DMEM media containing 1% penicillin/streptomycin, and cells were treated with studied compounds at a concentration of 10 µM for 1 h. After that, PQ (500 µM) was added and cells were incubated during 24 h. Cells incubated without PQ and compounds and with PQ alone were used as positive and negative controls, respectively.
For each well, approximately 10 images were acquired randomly by scanning the wells from left to right and top to bottom using the AxioImager A1 microscope (CarlZeiss, Oberkochen, Germany). A total of ten random fields (near 350 cells in each) for each experimental group were scored for neurite outgrowth. The number of neurite-bearing cells and lengths of the individual neurites for each cell were measured using the AxioVision 4.7.1 software (CarlZeiss, Oberkochen, Germany). Length was defined as the straight-line distance from the tip of the neurite to the junction between the cell body and neurite base. In the case of branched neurites, the length of the longest branch was measured from the tip of the neurite to the cell body. In each experimental group, the average length of neurites was calculated, as well as the average number of neurites per one cell.

[5] = tested on: ROS level in PQ-treated Neuro-2a cells; assay: ROS level analysis in PQ-treated Neuro-2a cells (H2DCFDA); assay type: cell-based, mouse; settings: tested at 1 and 10 μM, PQ 500 µM 1 h
Method: The cells (1 × 10^4 cells/well of a 96-well plate) were incubated with compound solutions (1 and 10 µM) during 1 h. Then, PQ was added to cell suspension to a resulting concentration of 500 µM for incubation during 1 h. Cells incubated without PQ and compounds and with PQ alone were used as positive and negative controls, respectively. The 20 µL of 2,7-dichlorodihydrofluorescein diacetate solution (H2DCFDA, Molecular Probes, Eugene, OR, USA) was added to each well (10 µM, final concentration) and the plate was incubated for an additional 10 min at 37 °C. The intensity of dichlorofluorescin fluorescence was measured with a PHERAstar FS plate reader (BMG Labtech, Ortenberg, Germany) at λex = 485 nm and λem = 518 nm. The data were processed by MARS Data Analysis v. 3.01R2 (BMG Labtech, Ortenberg, Germany). The results were presented as percent of positive control data.

[6] = tested on: PQ-treated Neuro-2a cells; assay: Propidium iodide straining of PQ-treated Neuro-2a cells (membrane permeability); assay type: cell-based, mouse; settings: compound 10 μM pre-incubation, PQ-treated cells, 24 h
Method: The cells (1 × 10^4 cells/well) were seeded in black 96-well plates before testing. After incubation of the cells with compounds and PQ during 24 h, PI solution (10 μg/mL) was added to each well and the plate was incubated in the dark at 37 °C for 10 min. Cells were washed with phosphate buffer saline (PBS) (BioloT, St.Peterburg, Russia) and fluorescence was measured with a Fluoroskan Ascent plate reader (Thermo Labsystems, Helsinki, Finland) at […]. All manipulations with fluorescent probes were carried out in a darkened room. The results were presented as percent of positive control data.

[7] = tested on: histamine release induced by anti-IgE; settings: cited from earlier work

For `CC(C)=CCC[C@@H](C)[C@H]1CC[C@@]2(C(=O)O)C3=C(CC[C@]12C)[C@@]1(C)CCC(=O)C(C)(C)[C@@H]1CC3` [Compound 4, penasterone], the “effect on PQ-treated cell viability (MTT assay)” value [1] was “did not show any effect”, the “effect on PQ-treated cell viability (FDA assay)” value [2] was “did not show any effect” and the “increase of Hsp70 level in PQ-treated cells” value [3] was 56%. The “increase in the average number of neurites per cell” value [4] was 27%, the “increase of neurites-bearing cell amount compared to PQ-treated control” value [4] was 134% and the “concentrations at which ROS content in PQ-treated cells was reduced” value [5] was “effective at concentrations of 1 and 10 μM”. The “decrease of fluorescence of PI-straining cells” value [6] was 17% and the “inhibition of histamine release induced by anti-IgE” value [7] was “inhibitors of histamine release”.

— PMC7698842, “Lanostane Triterpenoid Metabolites from a Penares sp. Marine Sponge Protect Neuro-2a Cells against Paraquat Neurotoxicity” (Molecules, 2020)
